The values below come from patent US20230355581A1, “METHODS OF TREATMENT FOR MELANOMA” (THE BOARD OF REGENTS OF THE UNVERSITY OF TEXAS SYSTEM, priority 2020, published 2023).

Each structure is given as a SMILES string. “Also recorded” adds a separate entry of the source.

Data set [1] relates to A375 cells (BRAF V600E mutant melanoma). The data set is described as follows: 3D collagen culture viability dose response, A375. It counts as cell-based. As to conditions: A375, 3D collagen matrix, 72 h. The method, then: Collagen was brought to room temperature. Cells were trypsinized, harvested and counted. […] Collagen was allowed to polymerize at 37° C.
The test system of data set [2] is B16BL6 melanoma cells. The data set is described as follows: 3D collagen culture viability dose response, B16BL6. The format is cell-based, murine. The following applies: B16BL6, 3D collagen matrix.
Procedure: (§1) Y-axis is the viability ratio where 1=100% viability, and 0=0% viability. The lines are non-linear fits, which are used to show the best fit curves. Those same fits are also used to calculate IC50 values. RMIC (where applicable) and DMSO are indicated as separate dots.
(§2) FIG. 1 panels A-F show the effect of SU11652 on BRAF V600E mutant (A375, M481) and BRAF-WT (M405, M498) as well as B16BL6 and B16F10 melanoma cells. The indicated cell line was cultured in collagen matrix to create physiologically relevant 3D culture conditions. The drug treatment was applied for 72 h and the response quantified. Three types of signal were measured using three different markers: apoptosis (CellEvent Caspase 3/7), permeabilized cell nuclei (ethidium homodimer), and all nuclei (Hoechst 33342) using an epifliorescence microscope. Each well of a 96-well plate was imaged at three different locations, with a z-step size of 2 μm for 251 steps to cover the entire height at that location. […] To resolve overlaps, we used the following precedence: permeabilization indicates cell death thus overwrites both other channels; in the absence of permeabilization, apoptosis marker overrides the Hoechst nuclear stain. These absolute pixel counts signal were converted to a relative viability signal by calculating the ratio of ethidium homodimer plus apoptosis signal to the total nuclear stain signal. […]
For data set [3], the system named is B16F10 melanoma cells. The experiment in a line: 3D collagen culture viability dose response, B16F10. The format is cell-based, murine. As to conditions: B16F10, 3D collagen matrix.
Procedure: as §1, §2
Data set [4] has as its system murine splenocytes. The data set is described as follows: Splenocyte viability by trypan blue staining. The format is cell-based. As to conditions: anti-CD3, anti-CD28 stimulated, 2 and 3 days, all doses. The source says:
Murine splenocytes were stimulated with anti-CD3 and anti-CD28 in addition to the indicated SU11652 doses for 2 and 3 days. At indicated timepoints, splenocytes were counted and cell death was quantified by trypan blue staining using automated cell counter. Error bars represent standard error of means for N=3 mice per timepoint.
Murine splenocytes were stimulated with anti-CD3, anti-CD28, and murine recombinant IL-2 in addition to the indicated SU11652 doses for 2 and 3 days (FIG. 4). At the indicated timepoints, splenocytes were counted and cell death was quantified by trypan blue staining using an automated cell counter. Error bars represent the standard error of the mean (SEM) for N=3 mice per timepoint. VC=vehicle control.

The test system of data set [5] is CD8+ and CD4+ lymphocytes (murine splenocytes). The experiment in a line: Intracellular cytokine production by flow cytometry. It counts as cell-based. As to conditions: PMA/ionomycin/monensin six hours, 72 h post-stimulation. The method, then:
Murine splenocytes were stimulated with anti-CD3, anti-CD28 and murine recombinant IL-2 in addition to the indicated SU11652 doses for 3 days. Prior to stimulation, cells were stained with carboxyfluorescein succinimidyl ester (CFSE) to track cell division. […] Additionally, cells were treated with phorbol 12-myristate 13-acetate (PMA)/ionomycin/monensin for six hours to detect the intracellular cytokines 72 h post-stimulation. […] CFSE dilution and the intracellular cytokines were detected by flow cytometry. Error bars represent SEM for n=3 mice.
Murine splenocytes were stimulated with anti-CD3, anti-CD28, and murine recombinant IL-2 in addition to the indicated SU11652 doses for 3 days. Prior to stimulation, cells were stained with CFSE to track cell division. […] Additionally, cells were treated with PMA/lonomycin/Monensin for six hours to detect intracellular cytokines. […] CFSE dilution and intracellular cytokines were detected by flow cytometry. Error bars represent SEM for n=3 mice.

For data set [6], the system named is A375 melanoma cells. The method, then: A375 cells were subcutaneously implanted at 3 million cells per mice with matrigel in the lower back of the mice. Once the tumors were palpable (150-200 mm^3), the mice were randomized and drug treatment was initiated. The mice were treated with vehicle control, 20 mg/kg sunitinib, 20 mg/kg SU11652, 50 mg/kg dabrafenib+0.5 mg/kg trametinib. The mice were treated with drugs daily for the duration of the experiment. Tumor sizes were assessed twice weekly using caliper measurement, and tumor volume was calculated using the formula (length×width^2×π)/6. Mice were euthanized when the tumor volume exceeded 1250 mm^3 or when necessary for animal welfare. The drug was dissolved in 0.5% w/v carboxymethylcellulose sodium, 1.8% w/v NaCl, 0.4% w/v Tween-80, 0.9% w/v benzyl alcohol. All mice were sacrificed before tumor weight exceeded 10% of body weight.
6-8 week old Nod-Scid IL2Rγ KO mice (NSG) were implanted at a single subcutaneous site with 3×10^6 A375 or M405 melanoma cells (FIGS. 6 and 9, respectively) in matrigel (0.2 ml). When tumors reached approximately 150-200 mm^3 (day 11 post tumor cell implantation for A375 cells; day 21 post tumor cell implantation for […]), therapy was initiated. For A375 melanoma cells, treatment was with 20 mg/kg SU11652, 20 mg/kg Sunitinib, 50 mg/kg Debrafenib/0.5 mg/kg Trametinib or vehicle only (0.5% CMC/1.8% NaCl/0.4% Tween80/0.9% Benzyl Alcohol) at 0.2 ml/mouse PO qd. For M405 cells, treatment was with 20 mg/kg SU11652, 20 mg/kg Sunitinib or vehicle only (0.5% CMC/1.8% NaCl/0.4% Tween80/0.9% Benzyl Alcohol) at 0.2 ml/mouse PO qd. Compounds were administered as homogenous slurries after sonication (and heating at 60° C. for debrafenib/trametinib). Mice were weighed daily and tumors were measured with calipers twice weekly. Tumor volume was calculated as (L×W^2×pi)/6. When tumor volume reached >1250 mm^3 or if mice appeared moribund, they were euthanized and tumors immediately collected and snap frozen. […] All mice not previously euthanized were sacrificed on day 43 (A375 cells) or day 59 (M405 cells).
Tumor growth was evaluated as described in Evans (Evans et al., Cancer Immunol Res. 2015 June; 3(6):689-701). Time to endpoint (TTE) was determined by extrapolating the day on which tumors reached 1250 mm^3 from log-transformed tumor growth data sets. […] The median TTE was calculated for the group and tumor growth delay (TGD) defined as the increase in the median TTE in a treatment group compared to the control group, using the formula: % TGD=((T−C)/C)×[…]. […] The average % TGI was calculated for treatment days when all animals were still present. Mean tumor volumes±SEM were plotted and the difference between treated and control evaluated by Student's unpaired t-test (GraphPad QuickCalcs).

In data set [7] the test system is IGR1 (RAC1^P29S) cell line. The data set is described as follows: Cytotoxic and cytostatic activity, IGR1. The format is cell-based. As to conditions: IGR1, addition of SU11652 to RMIC.
Source text: Two new cell lines were used to shed insight into the relationship between RAC1 signaling and SU11652 activity. The first cell line used was IGR1 which is RAC1^P29S. […] The second new cell line was a knock-in RAC1P29S variant of A375 which allows direct comparisons between RAC1^WT and RAC1P29s melanoma.
Where [8] appears, read: A375, 20 mg/kg PO daily, compared with sunitinib.

With `CCN(CC)CCNC(=O)c1c(C)[nH]c(/C=C2\C(=O)Nc3ccc(Cl)cc32)c1C` [SU11652, 5-[(Z)-(5-chloro-2-oxo-1,2-dihydro-3H-indol-3-ylidene)methyl]-N-[2-(diethylamino)ethyl]-2,4-dimethyl-1H-pyrrole-3-carboxamide], the “cytotoxic effect (viability ratio dose response)” value in data set [1] was “strong cytotoxic effect; also recorded: broadly cytotoxic to melanoma cells”. Also, the “cytotoxic effect (viability ratio dose response)” value in data set [2] is recorded as “broadly cytotoxic to melanoma cells”. The “cytotoxic effect (viability ratio dose response)” value in data set [3] was “broadly cytotoxic to melanoma cells”. The “splenocyte viability / cell death” value in data set [4] is listed as “splenocytes remained viable; also recorded: does not kill normal immune cells”. In addition, the “TNFα and IFNγ production” value in data set [5] was “retained their TNFα and IFNγ production abilities”. For the same molecule, in data set [6] (setting [8]), the “average tumor growth inhibition” value is reported as “better average tumor growth inhibition” and the tumor growth delay entry was “greater tumor growth delay”. The time to endpoint entry in data set [6] (A375, 20 mg/kg PO daily, endpoint 1250 mm^3, compared with sunitinib) was “longer time to endpoint”. The “toxicity leading to weight loss” value in data set [6] (mouse, in vivo) is listed as “did not incur a major toxicity that would lead to weight loss”. In addition, in data set [7], the cytostatic activity entry is “caused both cytotoxic and cytostatic effect”; the cytotoxic activity result was “caused both cytotoxic and cytostatic effect”.
